# Experimental data taken from ChEMBL document CHEMBL1800055, “Orally active MMP-1 sparing α-tetrahydropyranyl and α-piperidinyl sulfone matrix metalloproteinase (MMP) inhibitors with efficacy in cancer, arthritis, and cardiovascular disease” (J Med Chem, 2010).
# pIC50: −log10 of the molar value.
# Key:
# Cartilage tissue = assay: Ex vivo inhibition of IL-1 and oncostatin M-induced bovine nasal cartilage degradation assessed as release of hydroxproline measured up to 16 days by mass spectrometry; format: functional, tissue-based; conditions: Bos taurus, 384 h
# Rattus norvegicus [1] = assay: Cardioprotective activity in rat myocardial infarction model assessed inhibition of left ventricular dilation at 10 mg/kg, po qd for 4 weeks (reference value: 0.59 +/- 0.02 mL); format: functional, Heart left ventricle
# Matrilysin = biological target: T1, Matrilysin (Homo sapiens, UniProt P09237)
# T1 sequence (P09237 whole entry): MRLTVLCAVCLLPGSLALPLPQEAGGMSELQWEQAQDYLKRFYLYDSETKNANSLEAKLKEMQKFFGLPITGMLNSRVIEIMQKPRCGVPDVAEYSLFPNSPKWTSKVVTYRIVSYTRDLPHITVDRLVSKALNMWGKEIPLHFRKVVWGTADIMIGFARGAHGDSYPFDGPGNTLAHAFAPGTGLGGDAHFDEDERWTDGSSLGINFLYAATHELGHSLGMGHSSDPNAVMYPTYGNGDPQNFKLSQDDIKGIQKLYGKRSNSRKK
# [2] = Oral bioavailability in male rat at 20 mg/kg after 24 hrs; format: ADME, organism-based; conditions: in vivo
# [3] = Cmax in female dog at 20 mg/kg, po after 24 hrs; format: ADME, organism-based, Canis lupus familiaris; set-up: dose 20 mg/kg, route oral; conditions: in vivo
# [4] = Tmax in female rat at 20 mg/kg, po after 24 hrs; format: ADME, organism-based; set-up: dose 20 mg/kg, route oral; conditions: in vivo
# [5] = biological target: 72 kDa type IV collagenase (Homo sapiens, UniProt P08253)
# Mus musculus = assay: Antiangiogenic activity in cornea of mouse bFGF-induced corneal micropocket model assessed as inhibition of angiogenesis at 5 mg/kg administered as BID; format: functional
# [6] = Cmax in male mouse at 20 mg/kg, po after 24 hrs; format: ADME, organism-based; set-up: dose 20 mg/kg, route oral; conditions: in vivo
# [7] = Cmax in female rat at 20 mg/kg, po after 24 hrs; format: ADME, organism-based; set-up: dose 20 mg/kg, route oral; conditions: in vivo
# Rattus norvegicus [8] = assay: Plasma concentration in rat at 20 mg/kg, po; format: ADME, organism-based; set-up: dose 20 mg/kg, route oral; conditions: in vivo
# [9] = Cmax in cynomolgus monkey at 20 mg/kg, po after 24 hrs; format: ADME, organism-based, Macaca fascicularis; set-up: dose 20 mg/kg, route oral; conditions: in vivo
# PC-3 = assay: Antitumor activity against human PC3 cells xenografted in po dosed BALB/c nu/nu mouse assessed as tumor growth inhibition administered BID measured on 25 to 30 days; format: functional, organism-based
# Stromelysin-1 = Stromelysin-1 (Homo sapiens, UniProt P08254)
# [10] = Tmax in cynomolgus monkey at 20 mg/kg, po after 24 hrs; format: ADME, organism-based, Macaca fascicularis; set-up: dose 20 mg/kg, route oral; conditions: in vivo
# [11] = AUC (0 to infinity) in male rat at 20 mg/kg, po after 24 hrs; format: ADME, organism-based; set-up: time infinity, dose 20 mg/kg, route oral; conditions: plasma
# [12] = Cmax in male dog at 20 mg/kg, po after 24 hrs; format: ADME, organism-based, Canis lupus familiaris; set-up: dose 20 mg/kg, route oral; conditions: in vivo
# [13] = Tmax in female dog at 20 mg/kg, po after 24 hrs; format: ADME, organism-based, Canis lupus familiaris; set-up: dose 20 mg/kg, route oral; conditions: in vivo
# [14] = AUC (0 to infinity) in female rat at 20 mg/kg, po after 24 hrs; format: ADME, organism-based; set-up: time infinity, dose 20 mg/kg, route oral; conditions: plasma
# [15] = Oral bioavailability in female rat at 20 mg/kg after 24 hrs; format: ADME, organism-based; conditions: in vivo
# [16] = Cmax in male rat at 20 mg/kg, po after 24 hrs; format: ADME, organism-based; set-up: dose 20 mg/kg, route oral; conditions: in vivo
# [17] = Oral bioavailability in male dog at 20 mg/kg after 24 hrs; format: ADME, organism-based, Canis lupus familiaris; conditions: in vivo
# [18] = Oral bioavailability in female mouse at 20 mg/kg after 24 hrs; format: ADME, organism-based; conditions: in vivo
# [19] = Cmax in rat at 20 mg/kg, po; format: ADME, organism-based; set-up: dose 20 mg/kg, route oral; conditions: in vivo
# Neutrophil collagenase = Neutrophil collagenase (Homo sapiens, UniProt P22894)
# [20] = Tmax in male mouse at 20 mg/kg, po after 24 hrs; format: ADME, organism-based; set-up: dose 20 mg/kg, route oral; conditions: in vivo
# [21] = Half life in rat at 20 mg/kg, po; format: ADME, organism-based; set-up: dose 20 mg/kg, route oral; conditions: in vivo
# [22] = Cmax in female mouse at 20 mg/kg, po after 24 hrs; format: ADME, organism-based; set-up: dose 20 mg/kg, route oral; conditions: in vivo
# [23] = AUC (0 to infinity) in female mouse at 20 mg/kg, po after 24 hrs; format: ADME, organism-based; set-up: time infinity, dose 20 mg/kg, route oral; conditions: plasma
# [24] = Tmax in female mouse at 20 mg/kg, po after 24 hrs; format: ADME, organism-based; set-up: dose 20 mg/kg, route oral; conditions: in vivo
# [25] = Oral bioavailability in cynomolgus monkey at 20 mg/kg after 24 hrs; format: ADME, organism-based, Macaca fascicularis; conditions: in vivo
# Collagenase 3 = Collagenase 3 (Homo sapiens, UniProt P45452)
# [26] = Oral bioavailability in rat at 20 mg/kg; format: ADME, organism-based; conditions: in vivo
# [27] = AUC (0 to infinity) in male dog at 20 mg/kg, po after 24 hrs; format: ADME, organism-based, Canis lupus familiaris; set-up: time infinity, dose 20 mg/kg, route oral; conditions: plasma
# [28] = Tmax in male rat at 20 mg/kg, po after 24 hrs; format: ADME, organism-based; set-up: dose 20 mg/kg, route oral; conditions: in vivo
# [29] = AUC (0 to infinity) in male mouse at 20 mg/kg, po after 24 hrs; format: ADME, organism-based; set-up: time infinity, dose 20 mg/kg, route oral; conditions: plasma
# [30] = AUC (0 to infinity) in cynomolgus monkey at 20 mg/kg, po after 24 hrs; format: ADME, organism-based, Macaca fascicularis; set-up: dose 20 mg/kg, route oral, time infinity; conditions: plasma
# [31] = Tmax in male dog at 20 mg/kg, po after 24 hrs; format: ADME, organism-based, Canis lupus familiaris; set-up: dose 20 mg/kg, route oral; conditions: in vivo
# [32] = Oral bioavailability in male mouse at 20 mg/kg after 24 hrs; format: ADME, organism-based; conditions: in vivo
# [33] = AUC (0 to infinity) in female dog at 20 mg/kg, po after 24 hrs; format: ADME, organism-based, Canis lupus familiaris; set-up: time infinity, dose 20 mg/kg, route oral; conditions: plasma
# [34] = Oral bioavailability in female dog at 20 mg/kg after 24 hrs; format: ADME, organism-based, Canis lupus familiaris; conditions: in vivo
# Interstitial collagenase = biological target: T2, Interstitial collagenase (Homo sapiens, UniProt P03956); format: cell-based, HT-1080
# T2 sequence (P03956 whole entry): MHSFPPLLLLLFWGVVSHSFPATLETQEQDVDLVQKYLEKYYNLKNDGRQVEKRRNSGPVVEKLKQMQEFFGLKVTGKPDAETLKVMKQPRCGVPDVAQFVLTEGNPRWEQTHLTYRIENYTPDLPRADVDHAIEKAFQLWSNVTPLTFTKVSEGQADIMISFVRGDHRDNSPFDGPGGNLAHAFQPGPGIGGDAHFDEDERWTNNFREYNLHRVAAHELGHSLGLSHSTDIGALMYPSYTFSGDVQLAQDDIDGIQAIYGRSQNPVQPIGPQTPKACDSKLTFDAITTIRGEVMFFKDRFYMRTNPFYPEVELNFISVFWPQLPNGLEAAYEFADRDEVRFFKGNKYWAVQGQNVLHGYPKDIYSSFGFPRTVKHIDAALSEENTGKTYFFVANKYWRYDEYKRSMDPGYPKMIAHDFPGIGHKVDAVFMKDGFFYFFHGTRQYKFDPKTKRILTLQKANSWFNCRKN
# Rattus norvegicus [35] = assay: Cardioprotective activity in rat myocardial infarction model assessed inhibition of left ventricular dilation at 50 mg/kg, po qd for 4 weeks (reference value: 0.69 +/- 0.02 mL); format: functional, Heart left ventricle
# Sequence of 72 kDa type IV collagenase (P08253 whole entry): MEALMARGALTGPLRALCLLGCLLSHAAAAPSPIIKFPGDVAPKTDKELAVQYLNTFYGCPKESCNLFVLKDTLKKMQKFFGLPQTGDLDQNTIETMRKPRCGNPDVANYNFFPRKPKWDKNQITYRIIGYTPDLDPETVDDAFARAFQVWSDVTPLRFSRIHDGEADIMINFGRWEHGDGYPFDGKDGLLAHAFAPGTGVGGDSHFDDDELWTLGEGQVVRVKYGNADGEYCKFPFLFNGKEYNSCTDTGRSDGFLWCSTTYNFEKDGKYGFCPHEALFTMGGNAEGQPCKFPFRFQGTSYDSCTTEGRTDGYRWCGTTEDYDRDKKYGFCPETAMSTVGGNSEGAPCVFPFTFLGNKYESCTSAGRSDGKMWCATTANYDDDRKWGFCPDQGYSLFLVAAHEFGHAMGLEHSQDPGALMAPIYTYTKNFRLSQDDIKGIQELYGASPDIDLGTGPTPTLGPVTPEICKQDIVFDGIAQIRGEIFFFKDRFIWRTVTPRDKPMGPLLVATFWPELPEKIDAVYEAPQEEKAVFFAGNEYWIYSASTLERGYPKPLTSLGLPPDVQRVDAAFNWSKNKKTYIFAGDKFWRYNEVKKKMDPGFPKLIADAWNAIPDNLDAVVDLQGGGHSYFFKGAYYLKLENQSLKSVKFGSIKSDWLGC
# Sequence of Neutrophil collagenase (P22894 whole entry): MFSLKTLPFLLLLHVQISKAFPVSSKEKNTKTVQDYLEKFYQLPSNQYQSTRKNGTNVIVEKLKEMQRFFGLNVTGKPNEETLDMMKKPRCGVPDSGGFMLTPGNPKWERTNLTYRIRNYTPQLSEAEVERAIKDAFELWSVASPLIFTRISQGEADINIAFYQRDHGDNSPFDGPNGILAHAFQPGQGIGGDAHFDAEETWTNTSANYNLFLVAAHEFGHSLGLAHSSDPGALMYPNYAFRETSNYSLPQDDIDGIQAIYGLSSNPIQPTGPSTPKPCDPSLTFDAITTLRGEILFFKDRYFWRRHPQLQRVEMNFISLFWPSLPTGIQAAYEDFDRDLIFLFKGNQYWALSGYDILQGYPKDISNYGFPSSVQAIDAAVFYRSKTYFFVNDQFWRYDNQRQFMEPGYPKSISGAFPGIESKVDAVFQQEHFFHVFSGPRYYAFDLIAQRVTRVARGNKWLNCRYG
# Sequence of Stromelysin-1 (P08254 whole entry): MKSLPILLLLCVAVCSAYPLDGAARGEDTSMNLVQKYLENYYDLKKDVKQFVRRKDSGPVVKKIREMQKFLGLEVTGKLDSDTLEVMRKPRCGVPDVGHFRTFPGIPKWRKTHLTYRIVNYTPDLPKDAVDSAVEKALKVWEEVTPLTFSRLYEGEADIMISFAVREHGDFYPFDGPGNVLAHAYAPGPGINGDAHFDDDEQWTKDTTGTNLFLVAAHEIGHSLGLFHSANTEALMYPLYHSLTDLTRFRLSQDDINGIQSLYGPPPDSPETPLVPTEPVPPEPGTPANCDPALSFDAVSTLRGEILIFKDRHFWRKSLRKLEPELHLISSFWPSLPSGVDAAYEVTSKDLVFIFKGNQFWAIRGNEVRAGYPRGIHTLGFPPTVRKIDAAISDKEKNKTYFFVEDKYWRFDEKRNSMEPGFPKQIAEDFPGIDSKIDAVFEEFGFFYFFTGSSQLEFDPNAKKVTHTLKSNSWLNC
smiles,measurement,setting,value
O=C(NO)C1(CS(=O)(=O)c2ccc(Oc3ccc(Cl)cc3)cc2)CCOCC1 [CTS-1027],pIC50,Cartilage tissue,7.52
COCCN1CCC(C(=O)NO)(S(=O)(=O)c2ccc(Oc3ccc(OC(F)(F)F)cc3)cc2)CC1,Activity,Rattus norvegicus [1],0.51 mL
same,pIC50,Matrilysin,5.15
same,bioavailability,[2],66.6%
same,Cmax,[3],68900 ng/mL
same,Tmax,[4],4 h
same,pIC50,[5],> 10.00
same,inhibition in vivo at 5 mg/kg,Mus musculus,60%
same,Cmax,[6],26600 ng/mL
same,Cmax,[7],69800 ng/mL
same,Cp,Rattus norvegicus [8],20521 ng/mL
same,Cmax,[9],37100 ng/mL
same,inhibition,PC-3,Dose-dependent effect
same,pIC50,Stromelysin-1,7.54
same,Tmax,[10],1.67 h
same,AUC(0-inf),[11],273 µg·h/mL
same,Cmax,[12],60600 ng/mL
same,Tmax,[13],0.5 h
same,AUC(0-inf),[14],668 µg·h/mL
same,bioavailability,[15],82.2%
same,Cmax,[16],42400 ng/mL
same,bioavailability,[17],64%
same,bioavailability,[18],80.8%
same,Cmax,[19],29600 ng/mL
same,pIC50,Neutrophil collagenase,8.77
same,Tmax,[20],0.167 h
same,half-life,[21],2.94 h
same,Cmax,[22],41000 ng/mL
same,AUC(0-inf),[23],36.1 µg·h/mL
same,Tmax,[24],0.167 h
same,bioavailability,[25],53.8%
same,pIC50,Collagenase 3,> 10.00
same,bioavailability,[26],67.9%
same,AUC(0-inf),[27],228 µg·h/mL
same,Tmax,[28],2 h
same,AUC(0-inf),[29],29.3 µg·h/mL
same,AUC(0-inf),[30],191 µg·h/mL
same,Tmax,[31],0.833 h
same,bioavailability,[32],51.7%
same,AUC(0-inf),[33],156 µg·h/mL
same,bioavailability,[34],69.2%
same,pIC50,Interstitial collagenase,< 5.00
O=C(NO)C1(S(=O)(=O)c2ccc(Oc3ccc(OC(F)(F)F)cc3)cc2)CCN(Cc2ccccn2)CC1,pIC50,Matrilysin,< 5.00
same,Cp,Rattus norvegicus [8],1850 ng/mL
same,pIC50,Stromelysin-1,6.94
same,Cmax,[19],36800 ng/mL
same,pIC50,Neutrophil collagenase,9.22
same,half-life,[21],1.25 h
same,pIC50,Collagenase 3,> 10.00
same,bioavailability,[26],46.8%
same,pIC50,Interstitial collagenase,5.22
C#CCN1CCC(C(=O)NO)(S(=O)(=O)c2ccc(Oc3ccc(S(C)(=O)=O)cc3)cc2)CC1,Activity,Rattus norvegicus [35],0.63 mL
same,pIC50,[5],8.48
same,pIC50,Collagenase 3,8.54
same,pIC50,Interstitial collagenase,< 5.00
O=C(NO)C1(S(=O)(=O)c2ccc(Oc3ccc(C(F)(F)F)cc3)cc2)CCN(C2CC2)CC1,pIC50,Matrilysin,< 5.00
same,pIC50,[5],10.00
same,Cp,Rattus norvegicus [8],631 ng/mL
same,pIC50,Stromelysin-1,7.11
same,Cmax,[19],8320 ng/mL
same,pIC50,Neutrophil collagenase,8.89
same,half-life,[21],1.48 h
same,bioavailability,[26],36.3%
